Here are results for four compounds from patent US9926605B2, “Functional genomics screening platform for head and neck cancer” (University of Pittsburgh—of the Commonwealth System of …, priority 2012, dated 2018).

Experiment [1] relates to UM-SCC47 cells expressing the HRAS(Q61K) mutant. Put plainly: Growth inhibition of UM-SCC47 cells expressing HRAS(Q61K). Type of experiment: cell-based, human. The following applies: 250 nM, 24 hours; HRAS(Q61K) vs HRAS WT and EGFP vector control cells, n=4.
Description: (A) HRAS wildtype (WT) and HRAS (Q61K) mutant or an EGFP vector control was introduced into the HPV-HSNCC cell line, UM-SCC47, by retroviral infection.
To test whether increased PI3K signaling can be achieved by mutations in HRAS, a hotspot HRAS mutation found in our HNSCC cohort, HRAS(Q61K), was generated. Experiments were performed to determine the effect this mutation had on PI3K activation and response to PI3K pathway inhibition.
In experiment [2] the test system is UMSCC-47 cells expressing PIK3CA (WT) or PIK3CA (E542K) mutant. The following applies: 0 to 10 μM, 72 h; PIK3CA WT or E542K expressing cells vs vector control.
Description: Retrovirus-infected UMSCC-47 cells expressing control EGFP gene, PIK3CA (WT) or PIK3CA (E542K) mutant were subjected to BEZ-235 (from 0 to 10 μM) treatment for 72 h followed by growth determinations.
To determine the effects of individual PIK3CA mutations on sensitivity to PI3K pathway inhibitors in HNSCC, we tested the effects of a representative PI3K pathway inhibitor (BEZ-235) in HPV-HNSCC cells engineered to express mutant or WT PIK3CA (E542K) a HNSCC line harboring a PIK3CA mutation.
In experiment [3] the test system is PE/CA-PJ49 (PTPRD I1821V) versus PE/CAPJ34 (Clone 12) HNSCC cells. Put plainly: MTT assay in HNSCC cell lines with endogenous mutant versus WT PTPRD. Type of experiment: cell-based, human. The note with it: 24 hours, n=3, mutant PTPRD (I1821V) cells vs WT PTPRD cells. As to the method: To determine if PTPR mutation enhances sensitivity to STAT3 pathway inhibitors, HNSCC cell lines harboring endogenous PTPR mutation were compared with cell lines containing WT PTPRs. Cells were plated at equal density (3×10^4/well), treated with various concentration of the STAT3 inhibitors, Stattic (Sigma-Aldrich, MO), a small molecule inhibitor of STAT3 activation and dimerization, or JSI-124 (Calbiochem, MA) for 24 hours, followed by MTT assay (n=3). EC50 values were determined, with extrapolation at 20 μM, by GraphPad Prism 5 software.
(Tetrazolium dyes change colour on reduction, which living cells bring about.)

Experiment [4] concerns PCI-52-SD1 cells expressing PTPRT(R1059L). Put plainly: Growth inhibition of PCI-52-SD1 cells expressing PTPRT(R1059L) by JAK/STAT inhibitor. Format: cell-based, human. The following applies: 24 hours of treatment; PTPRT(R1059L) cells vs vector control cells, n=4. From the text: FIG. 6. Mutation of PTPRT(R1059L) leads to increased sensitivity to STAT3 inhibition in PCI-52-SD1 cells. PCI-52-SD1 cells were infected with retrovirus expressing the PTPRT(R1059L) mutant gene or PTPRT wildtype (WT) versus vector control (pMXs-EGFP vector).
Overall, our models can be used to determine if the mutation detected in a human tumor is important for tumor growth and facilitate selection of the appropriate therapeutic agents.

Experiment [5] has as its system HNSCC patient tumorgrafts. Put plainly: Heterotopic HNSCC patient tumorgrafts in NOD/SCID mice. Type of experiment: in vivo. On the procedure: FIG. 12A-B. AZD1480 inhibits HNSCC patient tumorgraft growth in conjunction with reduce pSTAT3 expression. (A) Mice bearing heterotropic HNSCC patient tumorgrafts derived from 2 patients (10 mice per group) were treated with AZD1480 (30 mg/kg) or vehicle control, twice daily by oral gavage. Tumor volumes were measures every other day. Statistical difference was determined at the end of the experiment using the Mann-Whitney two-tailed test. (B) Tumors were harvested at the end of treatment, and whole cell lysates were prepared and subjected to immunoblotting with pSTAT3 (Tyr705) and STAT3 antibody. Beta-tubulin was used to assess protein loading. Densitometry was performed and bar graphs illustrate the cumulative findings from each HNSCC tumorgraph experiment.
In vivo studies have generally relied on xenograft tumors derived from implantation of immortalized HNSCC cell lines into immunocompromised mice. To generate a more clinically relevant platform to assess the antitumor effects of candidate therapies, human tumors were directly inoculated into NOD/SCID mice. To date, implanted tumors from 35 HNSCC patients were obtained according to previously described methods. Twenty-six of these tumors have grown successfully in mice at a median time of 16 weeks (range 6-26 weeks) for a take rate of 74%. […]

Experiment [6] deals with phospho-STAT3 (Tyr705) in UMSCC-1 cells. Put plainly: pSTAT3 (Tyr705) immunoblotting in HNSCC cell line. Format: cell-based, human. The note with it: increasing concentration, 24 hours, immunoblot. As to the method: FIG. 13. […] UMSCC-1 cells were treated with increasing concentration of AZD1480. After 24 hours, cells were harvested to obtain cell lysates. Forty micrograms of protein/lane were subjected to electrophoresis and immunoblotted for phosphor-STAT3 (Tyr705) and total STAT3. Beta-tubulin was used as a loading control.
(§1) The effect of AZD1480 on STAT3 tyrosine phosphorylation and cell growth was further assessed in a panel of HNSCC cell lines.
For orientation: In western blotting, separated proteins are transferred to a membrane and probed.

A further experiment concerns 9 HNSC cell lines. Put plainly: Proliferation of a panel of HNSCC cell lines. The following applies: Homo sapiens; range in 9 HNSC cell lines tested; data not shown; read-out: EC50 (inhibition of proliferation). Format: cell-based.
Description: as §1

Experiment [7] concerns UM-SCC1 cells expressing mutant PTPRD (P1311T). Put plainly: MTT survival and STAT3 promoter activity in UM-SCC1 cells expressing mutant PTPRD. The note with it: PTPRD mutant cells compared with controls. Type of experiment: cell-based, human. On the procedure:
FIG. 14. […] UM-SCC1 cells expressing mutant PTPRD (P1311T) or vector control were treated with AZD1480 (5 μm) or DMSO (vehicle) followed by MTT assay to determine % survival relative to vehicle control. Results are mean±SEM, performed in triplicate.
as §1

A further experiment concerns the target WT JAK2 (Homo sapiens, UniProt O60674). The note with it: read-out: enzyme IC50; cited from earlier work.

One may read the IC50 as the concentration at which inhibition is half-maximal.

WT JAK2, sequence (O60674 whole entry): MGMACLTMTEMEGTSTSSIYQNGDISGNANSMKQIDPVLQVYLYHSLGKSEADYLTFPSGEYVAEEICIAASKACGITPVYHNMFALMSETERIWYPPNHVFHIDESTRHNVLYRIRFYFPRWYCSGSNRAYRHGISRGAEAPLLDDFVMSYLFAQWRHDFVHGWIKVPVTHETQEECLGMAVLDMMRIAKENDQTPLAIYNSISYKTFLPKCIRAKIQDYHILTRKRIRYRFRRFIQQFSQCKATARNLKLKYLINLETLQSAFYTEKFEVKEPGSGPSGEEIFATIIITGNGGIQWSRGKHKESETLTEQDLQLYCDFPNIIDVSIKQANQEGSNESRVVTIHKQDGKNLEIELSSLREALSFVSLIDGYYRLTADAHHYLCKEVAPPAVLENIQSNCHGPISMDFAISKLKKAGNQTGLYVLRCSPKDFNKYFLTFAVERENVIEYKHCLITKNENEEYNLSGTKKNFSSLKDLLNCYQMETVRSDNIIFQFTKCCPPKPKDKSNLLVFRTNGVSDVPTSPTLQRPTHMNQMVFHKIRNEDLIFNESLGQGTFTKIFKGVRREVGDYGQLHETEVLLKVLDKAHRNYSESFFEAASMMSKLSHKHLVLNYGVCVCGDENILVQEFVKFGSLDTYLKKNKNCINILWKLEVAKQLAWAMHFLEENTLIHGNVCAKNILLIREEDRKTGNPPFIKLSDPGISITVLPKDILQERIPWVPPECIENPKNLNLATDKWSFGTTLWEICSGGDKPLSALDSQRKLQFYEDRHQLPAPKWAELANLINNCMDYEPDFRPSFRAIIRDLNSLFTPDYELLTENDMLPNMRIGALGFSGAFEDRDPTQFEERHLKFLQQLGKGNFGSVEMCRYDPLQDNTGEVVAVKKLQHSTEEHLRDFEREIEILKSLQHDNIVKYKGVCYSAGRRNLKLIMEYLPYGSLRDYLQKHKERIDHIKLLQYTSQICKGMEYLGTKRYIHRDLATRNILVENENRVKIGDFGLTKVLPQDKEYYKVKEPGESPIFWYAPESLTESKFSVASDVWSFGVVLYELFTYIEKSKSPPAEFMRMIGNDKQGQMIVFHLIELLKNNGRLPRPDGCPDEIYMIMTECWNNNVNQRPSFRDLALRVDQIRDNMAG

On to `Cn1c(=O)n(-c2ccc(C(C)(C)C#N)cc2)c2c3cc(-c4cnc5ccccc5c4)ccc3ncc21` [BEZ-235], for which the “sensitivity to growth inhibition” value in experiment [1] is listed as “more sensitive to growth inhibition”. In addition, the “sensitivity to BEZ-235 treatment (growth)” value in [2] is reported as “more sensitive to BEZ-235 treatment than vector control transfected cells”.

Regarding `O=[N+]([O-])c1ccc2c(c1)S(=O)(=O)C=C2` [Stattic], in experiment [3], the “sensitivity to growth inhibitory effects of STAT3 pathway inhibitors” value was “more sensitive to the growth inhibitory effects”.

With `CC(C)(O)/C=C/C(=O)[C@](C)(O)[C@H]1[C@H](O)C[C@@]2(C)[C@@H]3CC=C4[C@@H](C=C(O)C(=O)C4(C)C)[C@]3(C)C(=O)C[C@]12C` [JSI-124], the “sensitivity to growth inhibition” value in experiment [4] was “more sensitive to growth inhibition”. Further, in experiment [3], the “sensitivity to growth inhibitory effects of STAT3 pathway inhibitors” value was “more sensitive to STAT3 pathways inhibitors”.

Turning to `Cc1cc(Nc2nc(N[C@@H](C)c3ncc(F)cn3)ncc2Cl)n[nH]1` [AZD1480, 5-chloro-N2-[(1S)-1-(5-fluoropyrimidin-2-yl)ethyl]-N4-(5-methyl-1H-pyrazol-3-yl)pyrimidine-2,4-diamine], in experiment [5] (heterotopic HNSCC patient tumorgrafts in mice, AZD1480 30 mg/kg twice daily by oral gavage), the “antitumor effects (tumorgraft growth)” value was “demonstrated antitumor effects”. For the same compound, the “expression of pSTAT3 and STAT3 target genes in tumors” value in experiment [5] (heterotopic xenografts from 2 HNSCC human tumors, end of treatment) is “decreased expression of pSTAT3 and STAT3 target genes”. Also, the pSTAT3 expression result in experiment [6] is “reduced pSTAT3 expression in a dose- and time-dependent manner”. In addition, the EC50 in the experiment on 9 HNSC cell lines was 990 to 3800 nM. Moreover, the survival entry in [7] (AZD1480 5 μm, MTT) is “decreased survival”. Besides, the STAT3 promoter activity entry in experiment [7] was “decreased survival and STAT3 promoter activity”. Further, on WT JAK2, the IC50 was < 3 nM.
